We go through 18 compounds from patent US8685977B2, “Chemical compounds” (Pfizer Limited, priority 2010, dated 2014).

This experiment deals with T1, Nav1.7 (or SCN9A) channel (Homo sapiens, UniProt Q15858).
T1 construct: expressed in transfected cells
T1 sequence (Q15858 whole entry): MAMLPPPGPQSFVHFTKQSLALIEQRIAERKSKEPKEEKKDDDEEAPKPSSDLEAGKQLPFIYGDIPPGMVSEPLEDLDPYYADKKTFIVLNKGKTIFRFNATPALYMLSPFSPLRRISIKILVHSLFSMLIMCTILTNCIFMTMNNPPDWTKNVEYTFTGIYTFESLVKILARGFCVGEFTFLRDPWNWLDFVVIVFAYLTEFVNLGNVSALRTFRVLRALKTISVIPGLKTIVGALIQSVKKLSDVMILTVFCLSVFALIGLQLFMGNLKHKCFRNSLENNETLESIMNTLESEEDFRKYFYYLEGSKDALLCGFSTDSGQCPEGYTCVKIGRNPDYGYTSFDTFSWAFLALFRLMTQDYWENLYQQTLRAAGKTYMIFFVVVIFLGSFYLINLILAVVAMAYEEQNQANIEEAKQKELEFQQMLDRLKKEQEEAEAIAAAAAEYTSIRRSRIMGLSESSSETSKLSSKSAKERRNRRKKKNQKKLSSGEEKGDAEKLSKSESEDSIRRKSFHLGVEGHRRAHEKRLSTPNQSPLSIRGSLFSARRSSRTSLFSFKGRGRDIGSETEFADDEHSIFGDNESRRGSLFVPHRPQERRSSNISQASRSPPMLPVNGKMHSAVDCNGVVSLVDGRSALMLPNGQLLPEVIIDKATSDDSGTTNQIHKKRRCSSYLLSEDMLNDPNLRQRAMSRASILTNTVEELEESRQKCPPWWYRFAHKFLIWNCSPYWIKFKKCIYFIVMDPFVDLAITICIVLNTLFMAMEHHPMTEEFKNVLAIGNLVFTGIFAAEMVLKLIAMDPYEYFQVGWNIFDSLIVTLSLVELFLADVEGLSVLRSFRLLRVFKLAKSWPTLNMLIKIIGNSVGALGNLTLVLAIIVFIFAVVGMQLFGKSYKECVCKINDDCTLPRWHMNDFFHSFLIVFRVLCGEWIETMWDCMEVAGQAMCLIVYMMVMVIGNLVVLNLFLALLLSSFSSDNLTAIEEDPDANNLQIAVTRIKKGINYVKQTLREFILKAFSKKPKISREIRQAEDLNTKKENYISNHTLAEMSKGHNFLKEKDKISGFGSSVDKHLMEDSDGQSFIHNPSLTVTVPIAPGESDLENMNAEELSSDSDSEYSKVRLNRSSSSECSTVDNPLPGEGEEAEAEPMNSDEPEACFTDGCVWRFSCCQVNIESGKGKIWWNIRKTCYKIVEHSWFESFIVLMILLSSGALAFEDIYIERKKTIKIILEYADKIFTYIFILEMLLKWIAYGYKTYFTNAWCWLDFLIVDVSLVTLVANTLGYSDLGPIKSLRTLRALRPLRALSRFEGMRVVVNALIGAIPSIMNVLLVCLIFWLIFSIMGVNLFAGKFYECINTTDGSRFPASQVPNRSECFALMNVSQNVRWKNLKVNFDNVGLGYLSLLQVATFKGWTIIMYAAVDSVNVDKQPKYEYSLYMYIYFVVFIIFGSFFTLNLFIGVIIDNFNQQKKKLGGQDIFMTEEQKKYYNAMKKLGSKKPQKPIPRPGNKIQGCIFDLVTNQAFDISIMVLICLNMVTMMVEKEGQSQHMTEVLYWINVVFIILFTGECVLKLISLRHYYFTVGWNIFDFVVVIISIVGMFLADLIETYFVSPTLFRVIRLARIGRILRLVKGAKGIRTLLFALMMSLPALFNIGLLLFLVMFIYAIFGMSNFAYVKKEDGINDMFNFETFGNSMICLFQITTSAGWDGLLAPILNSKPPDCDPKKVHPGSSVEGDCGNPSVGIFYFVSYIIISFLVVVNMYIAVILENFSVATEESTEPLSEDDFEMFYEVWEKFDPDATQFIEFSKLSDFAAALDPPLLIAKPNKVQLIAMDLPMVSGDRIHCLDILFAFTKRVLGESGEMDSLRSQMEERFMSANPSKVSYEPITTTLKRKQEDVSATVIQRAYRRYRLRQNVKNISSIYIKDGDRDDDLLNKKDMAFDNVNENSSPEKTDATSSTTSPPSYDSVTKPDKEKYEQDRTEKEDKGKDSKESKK
In words: Nav1.7 PatchXpress 7000 automated electrophysiology assay (HEK cells stably expressing hSCN9A). It counts as cell-based. Conditions: voltage-clamped at V1/2 of inactivation, read-out: Nav1.7 EIC50. In outline:
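Automated whole-cell clamp (PatchXpress) of HEK cells stably expressing hSCN9A, at 22-24 °C, in extracellular buffer at pH 7.4. Cells were held at the measured V1/2 of inactivation, then stepped to 0 mV for 20 ms. Single-concentration % inhibition gave EIC50 = concentration × (100 − %inhibition)/%inhibition, excluding <20% or >80%.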
`Cc1ccc(F)cc1Oc1cc(F)c(C(=O)NS(C)(=O)=O)cc1F` [Example 115, 2,5-difluoro-4-(5-fluoro-2-methylphenoxy)-N-(methylsulfonyl)benzamide]: the IC50 was more than 3000 nM. The result for `CS(=O)(=O)NC(=O)c1ccc(Oc2ccc(-c3ccccc3)cc2)c(C#N)c1` [Example 280, 4-(biphenyl-4-yloxy)-3-cyano-N-(methylsulfonyl)benzamide] reads 430 nM; that for `CCc1cc(F)ccc1Oc1ccc(C(=O)NS(C)(=O)=O)c(F)c1` [Example 19, 4-(2-ethyl-4-fluorophenoxy)-2-fluoro-N-(methylsulfonyl)benzamide], more than 1000 nM. For the compound `CS(=O)(=O)NC(=O)c1ccc(Oc2cccc(Cl)c2)cc1` [Example 202, 4-(3-chlorophenoxy)-N-(methylsulfonyl)benzamide], the IC50 is 6900 nM. With `CCc1cc(F)ccc1Oc1ccc(C(=O)NS(C)(=O)=O)cc1C#N` [Example 22, 3-cyano-4-(2-ethyl-4-fluorophenoxy)-N-(methylsulfonyl)benzamide] the figure was 5200 nM; with `COc1cc(F)cc(Oc2cc(F)c(C(=O)NS(C)(=O)=O)cc2F)c1` [Example 92, 2,5-difluoro-4-(3-fluoro-5-methoxyphenoxy)-N-(methylsulfonyl)benzamide], more than 3000 nM. With `CS(=O)(=O)NC(=O)c1cc(Cl)c(Oc2ccc3ccccc3c2)cc1F` [Example 285, 5-chloro-2-fluoro-N-(methylsulfonyl)-4-(2-naphthyloxy)benzamide] the figure was 57 nM. In the case of `COc1cccc(Oc2ccc(C(=O)NS(C)(=O)=O)cc2)c1` [Example 161, 4-(3-methoxyphenoxy)-N-(methylsulfonyl)benzamide], the IC50 was 28000 nM.

For `CS(=O)(=O)NC(=O)c1cc(F)c(Oc2cccc(OC(F)(F)F)c2)cc1F` [Example 124, 2,5-difluoro-N-(methylsulfonyl)-4-[3-(trifluoromethoxy)phenoxy]benzamide], the IC50 amounted to 490 nM. With `CS(=O)(=O)NC(=O)c1ccc(Oc2ccc(Cl)cc2)c(Cl)c1` [Example 214, 3-chloro-4-(4-chlorophenoxy)-N-(methylsulfonyl)benzamide] the figure was 220 nM; with `COc1ccc(Oc2ccc(C(=O)NS(C)(=O)=O)cc2Cl)cc1` [Example 257, 3-chloro-4-(4-methoxyphenoxy)-N-(methylsulfonyl)benzamide], 1100 nM. The result for `CS(=O)(=O)NC(=O)c1ccc(Oc2cc(F)cc(F)c2)cc1` [Example 192, 4-(3,5-difluorophenoxy)-N-(methylsulfonyl)benzamide] reads 14000 nM. `COc1cccc(Oc2ccc(C(=O)NS(C)(=O)=O)cc2Cl)c1` [Example 255, 3-chloro-4-(3-methoxyphenoxy)-N-(methylsulfonyl)benzamide]: the IC50 turned out to be 1400 nM. With `COc1cc(Cl)ccc1Oc1ccc(C(=O)NS(C)(=O)=O)c(F)c1` [Example 64, 4-(4-chloro-2-methoxyphenoxy)-2-fluoro-N-(methylsulfonyl)benzamide] the figure was more than 3000 nM; with `O=C(NS(=O)(=O)c1ccccc1)c1cc(F)c(Oc2ccc(Cl)c(C(F)(F)F)c2)cc1F` [Example 57, 4-[4-chloro-3-(trifluoromethyl)phenoxy]-2,5-difluoro-N-(phenylsulfonyl)benzamide], 920 nM. As to `CS(=O)(=O)NC(=O)c1ccc(Oc2ccc(Cl)c(C(F)(F)F)c2)c(F)c1` [Example 42, 4-[4-chloro-3-(trifluoromethyl)phenoxy]-3-fluoro-N-(methylsulfonyl)benzamide], the IC50 was determined as 590 nM. The result for `COc1cc(C)ccc1Oc1ccc(C(=O)NS(C)(=O)=O)cc1` [Example 189, 4-(2-methoxy-4-methylphenoxy)-N-(methylsulfonyl)benzamide] reads more than 10000 nM; that for `CS(=O)(=O)NC(=O)c1cc(Cl)c(Oc2ccc(Cl)cc2OC(F)(F)F)cc1F` [Example 53, 5-chloro-4-[4-chloro-2-(trifluoromethoxy)phenoxy]-2-fluoro-N-(methylsulfonyl)benzamide], 63 nM.
